Test results as given in patent US9725442B2, “Heterocyclic derivative having PGD2 receptor antagonist activity” (Shionogi & Co., Ltd., priority 2011, dated 2017).
Like-named read-outs stand apart in the source and are kept apart here.

How the values were obtained:
[1] = biological target: CRTH2 (Homo sapiens (Human), UniProt Q9Y5Y4); assay: CRTH2 receptor binding inhibitory activity ([3H]-PGD2 displacement, membranes of CRTH2-expressing K562 cell); conditions: [3H]-PGD2 displacement, membrane of CRTH2-expressing K562 cell, read-out: Ki
Sequence of CRTH2 (Q9Y5Y4 whole entry): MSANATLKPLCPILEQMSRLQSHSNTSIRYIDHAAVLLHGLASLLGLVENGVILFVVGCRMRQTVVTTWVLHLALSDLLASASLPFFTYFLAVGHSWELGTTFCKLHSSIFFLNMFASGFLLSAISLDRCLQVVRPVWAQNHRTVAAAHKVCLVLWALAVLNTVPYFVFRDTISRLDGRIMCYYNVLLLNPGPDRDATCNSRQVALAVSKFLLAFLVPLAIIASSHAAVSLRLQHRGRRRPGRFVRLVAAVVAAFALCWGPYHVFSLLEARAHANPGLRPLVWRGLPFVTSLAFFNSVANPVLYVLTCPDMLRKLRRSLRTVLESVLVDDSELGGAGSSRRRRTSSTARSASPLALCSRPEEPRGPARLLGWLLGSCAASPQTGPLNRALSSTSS
Method in brief: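 Incubation ran 60 min at room temperature using 20 μg/well membrane from CRTH2-expressing K562 cells in pH 7.4 Tris/HCl (50 mM) with 10 mM MgCl2.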

[2] = biological target: Human DP1 receptor (Homo sapiens (Human), UniProt Q13258); assay: Human DP1 inhibitory activity in DP1-expressing cell (PGD2-induced cAMP); format: cell-based
Sequence of Human DP1 receptor (Q13258 whole entry): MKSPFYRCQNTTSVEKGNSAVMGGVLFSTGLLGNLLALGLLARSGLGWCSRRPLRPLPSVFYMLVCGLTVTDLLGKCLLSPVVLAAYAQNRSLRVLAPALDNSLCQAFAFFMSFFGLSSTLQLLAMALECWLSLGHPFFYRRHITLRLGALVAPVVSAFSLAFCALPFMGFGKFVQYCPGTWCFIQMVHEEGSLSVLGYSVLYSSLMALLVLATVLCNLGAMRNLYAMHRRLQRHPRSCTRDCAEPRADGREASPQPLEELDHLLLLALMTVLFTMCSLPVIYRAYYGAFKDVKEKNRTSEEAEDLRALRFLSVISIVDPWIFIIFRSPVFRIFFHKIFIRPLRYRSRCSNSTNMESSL
Experimental: Compounds were categorized as AA (cAMP is less than 100 nM) and A (cAMP is more than 100 nM and less than 5000 nM) as shown in Table 99 and 100.

[3] = CRTH2 receptor binding, categorized AAAA/AAA
[4] = category of cAMP IC50, human DP1 receptor expressing Jurkut cell

SMILES | Ki [1, 3] [µM] | IC50 [2, 4] [µM] | Ki [1] [µM] | IC50 ([2]; IC50 of PGD2 (60 nM)-induced cAMP increase, human DP1 receptor expressing Jurkut cell) [µM]
[2H]c1ccc2c(c1)c(CC(=O)O)nn2[C@H]1CN(S(=O)(=O)c2ccc(OCC)cc2)C[C@H]1C [Compound I-264] | < 0.1 | < 0.1 | – | –
CCOc1ccc(S(=O)(=O)N2C[C@@H](C)[C@@H](n3nc(CC(=O)O)c4cc(C)ccc43)C2)cn1 [Compound I-265] | < 0.1 | < 0.1 | – | –
C[C@@H]1CN(S(=O)(=O)C2CCCCC2)C[C@@H]1n1nc(CC(=O)O)c2ccccc21 [Compound I-266] | 0.1 to 5 | 0.1 to 5 | – | –
COc1ccc2c(c1)c(CC(=O)O)nn2[C@H]1CN(S(=O)(=O)c2ccc(OC(C)C)cc2)C[C@H]1C [Compound I-267] | 0.1 to 5 | < 0.1 | – | –
Cc1ccc2c(c1)c(CC(=O)O)nn2[C@H]1CN(S(=O)(=O)c2ccc(OCF)cc2)C[C@H]1C [Compound I-268] | < 0.1 | < 0.1 | – | –
C[C@@H]1CN(S(=O)(=O)c2ccc(OCF)cc2)C[C@@H]1n1nc(CC(=O)O)c2ccc(F)cc21 [Compound I-269] | < 0.1 | < 0.1 | – | –
C[C@@H]1CN(S(=O)(=O)c2ccc(OCF)cc2)C[C@@H]1n1nc(CC(=O)O)c2ccccc21 [Compound I-270] | < 0.1 | < 0.1 | – | –
CCOc1ccc(S(=O)(=O)N2C[C@@H](C)[C@@H](n3cc(CC(=O)O)c4ccc(C)cc43)C2)cc1 [Compound I-271] | < 0.1 | < 0.1 | – | –
CCOc1ccc(S(=O)(=O)N2C[C@@H](C)[C@@H](n3cc(CC(=O)O)c4ccc(C)cc43)C2)cn1 [Compound I-272] | < 0.1 | < 0.1 | – | –
CCOCCCOc1ccc(S(=O)(=O)N2C[C@@H](C)[C@@H](n3nc(CC(=O)O)c4ccccc43)C2)cc1 [Compound I-273] | 0.1 to 5 | 0.1 to 5 | – | –
COCCCOc1ccc(S(=O)(=O)N2C[C@@H](C)[C@@H](n3nc(CC(=O)O)c4ccccc43)C2)cc1 [Compound I-274] | < 0.1 | 0.1 to 5 | – | –
CCOc1ccc(S(=O)(=O)N2C[C@H](n3nc(CC(=O)O)c4ccccc43)C[C@@H]2CF)cn1 [Compound I-275] | 0.1 to 5 | 0.1 to 5 | – | –
C=Cc1cc(OCC)ccc1S(=O)(=O)N1C[C@@H](C)[C@@H](n2nc(CC(=O)O)c3ccccc32)C1 [Compound I-276] | < 0.1 | < 0.1 | – | –
CCOc1ccc(S(=O)(=O)N2C[C@@H](C)[C@@H](n3nc(CC(=O)O)c4ccccc43)C2)c(CO)c1 [Compound I-277] | < 0.1 | < 0.1 | – | –
C#Cc1cc(OCC)ccc1S(=O)(=O)N1C[C@@H](C)[C@@H](n2nc(CC(=O)O)c3ccccc32)C1 [Compound I-278] | < 0.1 | 0.1 to 5 | – | –
CCOc1ccc(S(=O)(=O)N2C[C@@H](C)[C@@H](n3nc(CC(=O)O)c4ccccc43)C2)c(/C=C/CO)c1 [Compound I-279] | < 0.1 | 0.1 to 5 | – | –
CCOc1ccc(S(=O)(=O)N2C[C@@H](C)[C@@H](n3nc(CC(=O)O)c4ccccc43)C2)c(CCCO)c1 [Compound I-280] | < 0.1 | 0.1 to 5 | 0.0078 | –
CCOc1ccc(S(=O)(=O)N2C[C@@H](C)[C@@H](n3cc(CC(=O)O)c4ccc(-c5ncco5)cc43)C2)cc1 [Compound I-282] | < 0.1 | 0.1 to 5 | 0.01 | –
CCOc1ccc(S(=O)(=O)N2C[C@@H](C)[C@@H](n3nc(C(C)(O)C(=O)O)c4ccccc43)C2)cc1 (stereo partly shown) [Compound I-283] | 0.1 to 5 | < 0.1 | – | –
CCOc1ccc(S(=O)(=O)N2C[C@@H](C)[C@@H](n3nc(C(C)(OC)C(=O)O)c4ccccc43)C2)cc1 (stereo partly shown) [Compound I-285] | 0.1 to 5 | 0.1 to 5 | – | –
Cc1ccc(S(=O)(=O)N2C[C@@H](C)[C@@H](n3c(C)c(CC(=O)O)c4ccccc43)C2)cc1 [Compound I-288] | < 0.1 | 0.1 to 5 | 0.04 | 0.1
CC(C)Oc1ccc(S(=O)(=O)N2C[C@H](n3nc(CC(=O)O)c4ccc(F)cc43)C[C@@H]2COCCCOc2ccccc2)cc1 [Compound I-289] | 0.1 to 5 | 0.1 to 5 | – | –
CCOc1ccc(S(=O)(=O)N2C[C@@H](C)[C@@H](n3nc(C(F)(F)C(=O)O)c4ccccc43)C2)cc1 [Compound I-290] | 0.1 to 5 | < 0.1 | – | –

SMILES | Ki [1, 3] [µM] | IC50 [2, 4] [µM] | Ki [1] [µM] | IC50 ([2]; IC50 of PGD2 (60 nM)-induced cAMP increase, human DP1 receptor expressing Jurkut cell) [µM]
COCCOCCOC[C@H]1C[C@@H](n2nc(CC(=O)O)c3ccc(F)cc32)CN1S(=O)(=O)c1ccc(OC(C)C)cc1 [Compound I-291] | 0.1 to 5 | 0.1 to 5 | – | –
CC(C)Oc1ccc(S(=O)(=O)N2C[C@H](n3nc(CC(=O)O)c4ccc(F)cc43)C[C@@H]2COc2ccccc2O)cc1 [Compound I-292] | 0.1 to 5 | < 0.1 | – | –
CCOc1ccc(S(=O)(=O)N2C[C@H](n3nc(CC(=O)O)c4ccccc43)[C@H](C)[C@H]2C#N)cn1 [Compound I-293] | 0.1 to 5 | 0.1 to 5 | – | –
CCOc1ccc(S(=O)(=O)N2C[C@@H](n3nc(CC(=O)O)c4ccccc43)[C@H](C)[C@H]2C#N)cc1 [Compound I-294] | 0.1 to 5 | 0.1 to 5 | – | –
CC(C)Oc1ccc(S(=O)(=O)N2C[C@H](n3nc(CC(=O)O)c4ccc(F)cc43)C[C@@H]2COc2cccc(I)c2)cc1 [Compound I-295] | 0.1 to 5 | < 0.1 | – | –
CCOc1ccc(S(=O)(=O)N2C[C@@H](C)[C@@H](n3nc(Cc4noc(=O)[nH]4)c4ccccc43)C2)cc1 [Compound I-296] | 0.1 to 5 | 0.1 to 5 | – | –
CCOc1ccc(S(=O)(=O)N2C[C@@H](C)[C@@H](n3nc(CC4=NNC(=O)C4)c4ccccc43)C2)cc1 [Compound I-297] | 0.1 to 5 | 0.1 to 5 | – | –
CCOc1ccc(S(=O)(=O)N2C[C@H](n3nc(CC(=O)O)c4ccccc43)[C@@H](C)[C@@H]2C(N)=O)cc1 [Compound I-298] | 0.1 to 5 | 0.1 to 5 | – | –
CC(C)Oc1ccc(S(=O)(=O)N2C[C@H](n3nc(CC(=O)O)c4ccc(F)cc43)C[C@@H]2Cn2ncnn2)cc1 [Compound I-299] | 0.1 to 5 | 0.1 to 5 | – | –
CC(C)Oc1ccc(S(=O)(=O)N2C[C@H](n3nc(CC(=O)O)c4ccc(F)cc43)C[C@H]2COc2nc3ccccc3s2)cc1 [Compound I-300] | < 0.1 | 0.1 to 5 | – | –
CC(C)Oc1ccc(S(=O)(=O)N2C[C@@H](n3nc(CC(=O)O)c4ccc(F)cc43)C[C@@H]2c2ccccc2F)cc1 [Compound I-301] | 0.1 to 5 | 0.1 to 5 | – | –
CC(C)Oc1ccc(S(=O)(=O)N2C[C@H](n3nc(CC(=O)O)c4ccc(F)cc43)C[C@@H]2c2ccccc2F)cc1 [Compound I-302] | 0.1 to 5 | 0.1 to 5 | – | –
CC(C)Oc1ccc(S(=O)(=O)N2C[C@H](n3nc(CC(=O)O)c4ccc(F)cc43)C[C@@H]2COc2cccc(F)c2)cc1 [Compound I-303] | 0.1 to 5 | < 0.1 | – | –
CCOc1ccc(S(=O)(=O)N2C[C@H](n3nc(CC(=O)O)c4ccccc43)[C@@H](C)[C@@H]2C#N)cc1 [Compound I-304] | < 0.1 | < 0.1 | – | –
CCS(=O)(=O)CCOc1ccc(S(=O)(=O)N2C[C@@H](C)[C@@H](n3nc(CC(=O)O)c4ccccc43)C2)cc1 [Compound I-305] | 0.1 to 5 | 0.1 to 5 | – | –
CCSCCOc1ccc(S(=O)(=O)N2C[C@@H](C)[C@@H](n3nc(CC(=O)O)c4ccccc43)C2)cc1 [Compound I-308] | < 0.1 | < 0.1 | – | –
CCOc1ccc(S(=O)(=O)N2C[C@@H](n3nc(CC(=O)O)c4ccccc43)[C@](C)(F)C2)cc1 [Compound I-310] | 0.1 to 5 | 0.1 to 5 | – | –
CCOc1ccc(S(=O)(=O)N2C[C@@H](C)[C@@H](n3nc(CC(=O)NO)c4ccccc43)C2)cc1 [Compound I-311] | 0.1 to 5 | 0.1 to 5 | – | –
CCOc1ccc(S(=O)(=O)N2C[C@@H](C)[C@@H](n3nc(CC(=O)O)c4ccccc43)C2)c(C(C)O)c1 (stereo partly shown) [Compound I-312] | < 0.1 | < 0.1 | – | –
CCOc1ccc(S(=O)(=O)N2C[C@H](F)[C@@H](n3nc(CC(=O)O)c4ccccc43)C2)cc1 [Compound I-313] | < 0.1 | 0.1 to 5 | – | –
CCOc1ccc(S(=O)(=O)N2C[C@@H](C)[C@@H](n3nc(CC(=O)O)c4ccccc43)C2)c(CCO)c1 [Compound I-314] | < 0.1 | 0.1 to 5 | – | –
CCOc1ccc(S(=O)(=O)N2C[C@H](n3c(C)c(CC(=O)O)c4ccccc43)C[C@@H]2C)cc1 [Compound I-315] | 0.1 to 5 | < 0.1 | – | –
